# According to ChEMBL document CHEMBL3396964, “SAH derived potent and selective EZH2 inhibitors” (Bioorg Med Chem Lett, 2015):
# pIC50: −log10 of the molar value.
# Experiments:
# [1] = molecular target: T1, Histone-lysine N-methyltransferase EZH1 (Homo sapiens, UniProt Q92800); assay: Inhibition of EZH1 (unknown origin) by HMT assay
# T1 sequence (Q92800 whole entry): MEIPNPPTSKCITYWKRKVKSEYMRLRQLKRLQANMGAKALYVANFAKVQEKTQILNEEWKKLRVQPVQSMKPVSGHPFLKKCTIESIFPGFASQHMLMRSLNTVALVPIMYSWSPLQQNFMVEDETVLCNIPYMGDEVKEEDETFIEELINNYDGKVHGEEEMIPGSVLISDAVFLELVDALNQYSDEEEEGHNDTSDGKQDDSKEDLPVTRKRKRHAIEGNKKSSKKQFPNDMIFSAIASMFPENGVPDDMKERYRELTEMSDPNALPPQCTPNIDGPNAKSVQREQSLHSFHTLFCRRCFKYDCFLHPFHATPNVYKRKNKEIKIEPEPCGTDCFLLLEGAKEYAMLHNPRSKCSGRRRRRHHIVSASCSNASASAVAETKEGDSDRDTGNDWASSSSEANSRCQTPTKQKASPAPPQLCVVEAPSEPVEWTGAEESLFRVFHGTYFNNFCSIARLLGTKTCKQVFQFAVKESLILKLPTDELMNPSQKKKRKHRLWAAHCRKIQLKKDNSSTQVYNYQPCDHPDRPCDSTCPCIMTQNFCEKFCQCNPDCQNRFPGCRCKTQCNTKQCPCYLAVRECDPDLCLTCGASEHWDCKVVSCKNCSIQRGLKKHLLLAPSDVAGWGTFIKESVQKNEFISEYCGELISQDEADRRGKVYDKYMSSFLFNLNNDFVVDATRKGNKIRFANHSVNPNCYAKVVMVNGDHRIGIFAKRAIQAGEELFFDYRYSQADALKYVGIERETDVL
# [2] = molecular target: T2, Histone-lysine N-methyltransferase EHMT2 (Homo sapiens, UniProt Q96KQ7); assay: Inhibition of G9a (unknown origin) by HMT assay
# T2 sequence (Q96KQ7 whole entry): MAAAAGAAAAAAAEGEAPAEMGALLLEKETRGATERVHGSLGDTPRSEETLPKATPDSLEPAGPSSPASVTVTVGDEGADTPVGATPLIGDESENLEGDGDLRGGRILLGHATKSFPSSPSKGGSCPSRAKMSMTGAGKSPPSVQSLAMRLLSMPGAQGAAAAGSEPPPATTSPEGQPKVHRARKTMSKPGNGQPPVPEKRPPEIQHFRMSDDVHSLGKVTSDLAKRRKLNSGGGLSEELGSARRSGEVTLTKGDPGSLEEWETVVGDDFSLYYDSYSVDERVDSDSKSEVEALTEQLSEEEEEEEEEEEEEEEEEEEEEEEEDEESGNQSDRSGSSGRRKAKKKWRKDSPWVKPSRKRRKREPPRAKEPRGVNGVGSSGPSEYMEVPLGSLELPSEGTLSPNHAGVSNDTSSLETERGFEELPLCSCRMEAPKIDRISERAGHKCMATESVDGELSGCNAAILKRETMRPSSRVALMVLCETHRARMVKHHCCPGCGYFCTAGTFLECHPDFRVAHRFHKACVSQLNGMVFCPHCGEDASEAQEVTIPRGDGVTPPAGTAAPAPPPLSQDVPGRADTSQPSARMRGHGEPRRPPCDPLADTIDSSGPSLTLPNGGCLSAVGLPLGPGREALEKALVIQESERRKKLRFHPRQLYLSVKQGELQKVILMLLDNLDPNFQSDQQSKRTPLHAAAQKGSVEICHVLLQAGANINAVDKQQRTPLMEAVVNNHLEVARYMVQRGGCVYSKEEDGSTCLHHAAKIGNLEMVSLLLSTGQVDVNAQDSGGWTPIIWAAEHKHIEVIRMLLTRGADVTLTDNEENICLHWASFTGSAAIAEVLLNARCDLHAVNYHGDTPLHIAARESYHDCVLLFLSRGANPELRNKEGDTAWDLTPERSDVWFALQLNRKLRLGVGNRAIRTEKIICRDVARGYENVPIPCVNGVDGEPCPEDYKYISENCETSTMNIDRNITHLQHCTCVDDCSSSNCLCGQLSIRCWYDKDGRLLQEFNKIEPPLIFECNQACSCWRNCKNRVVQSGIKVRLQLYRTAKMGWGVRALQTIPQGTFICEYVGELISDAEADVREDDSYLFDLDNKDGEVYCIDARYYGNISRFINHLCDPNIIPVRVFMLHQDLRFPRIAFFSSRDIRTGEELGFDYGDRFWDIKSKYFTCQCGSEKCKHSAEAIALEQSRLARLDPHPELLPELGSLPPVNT
# [3] = molecular target: Histone-lysine N-methyltransferase KMT5C (Homo sapiens, UniProt Q86Y97); assay: Inhibition of SUV420H2 (unknown origin) by HMT assay
# Chain of Histone-lysine N-methyltransferase KMT5C (Q86Y97 whole entry): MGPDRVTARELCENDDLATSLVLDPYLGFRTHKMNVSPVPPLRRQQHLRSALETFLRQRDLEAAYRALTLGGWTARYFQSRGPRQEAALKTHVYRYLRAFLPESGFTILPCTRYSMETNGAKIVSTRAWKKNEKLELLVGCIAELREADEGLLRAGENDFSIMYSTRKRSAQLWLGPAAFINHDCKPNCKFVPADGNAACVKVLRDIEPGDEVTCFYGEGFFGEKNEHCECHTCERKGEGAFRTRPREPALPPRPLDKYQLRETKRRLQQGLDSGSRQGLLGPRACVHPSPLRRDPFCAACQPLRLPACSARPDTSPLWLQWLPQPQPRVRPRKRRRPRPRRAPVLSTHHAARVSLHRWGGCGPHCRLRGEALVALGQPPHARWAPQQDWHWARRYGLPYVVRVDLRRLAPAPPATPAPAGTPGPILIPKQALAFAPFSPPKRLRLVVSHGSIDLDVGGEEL
smiles,measurement,setting,value
Nc1ncnc2c1ncn2[C@@H]1O[C@H](CSCC[C@H](N)C(=O)NCc2cc(-c3ccccc3)[nH]n2)[C@@H](O)[C@H]1O,pIC50,[1],5.68
same,pIC50,[2],< 4.00
same,pIC50,[3],< 4.00
